Measured values taken from patent US7339063B2, “Quinolyl organic germanium ester and the synthesis method thereof” (Changchun Institute of Applied Chemistry Chinese Academy of …, priority 2004, dated 2008).
Where two headings read alike, the source gives them in different places. Marks after values point to notes of the source that are not given here.

System: PC-3M prostate cancer cell line
Conditions: for inhibition fraction at the given concentration: PC-3M proliferation
Excerpt: Cytotoxicity of Quinolyl Germanyl Propionate Sesquioxide (a) and Quinolyl Germanyl-α-methyl Propionate Sesquioxide (b) Against PC-3M Prostate Cancer Cell Line
The only difference of these two compounds is with or without the methyl group in the linking chain of the Germanium and quinoline.

Substance | inhibition fraction at the given concentration (10 μM, 24 h) | inhibition fraction at the given concentration (10 μM, 48 h) | inhibition fraction at the given concentration (10 μM, 72 h) | inhibition fraction at the given concentration (30 μM, 24 h) | inhibition fraction at the given concentration (30 μM, 48 h) | inhibition fraction at the given concentration (30 μM, 72 h) | inhibition fraction at the given concentration (60 μM, 24 h) | inhibition fraction at the given concentration (60 μM, 48 h) | inhibition fraction at the given concentration (60 μM, 72 h) | IC50 relative to that of Compound (b) (PC-3M, MTT method) | IC50 (PC-3M, measured by MTT method) [µM]
Quinolyl Germanyl Propionate Sesquioxide [Compound (a)] | 0.34** | 0.69 | 0.62 | 0.48 | 0.74 | 0.74 | 0.50 | 0.74 | 0.78 | three fold lower | 10
Quinolyl Germanyl-α-methyl Propionate Sesquioxide [Compound (b)] | 0.09 | 0.32 | 0.58 | 0.30 | 0.45 | 0.69 | 0.20 | 0.43 | 0.67 | – | –
